How the values were obtained:
[1] = solubility in octanol, room temperature
Experimental: Lipid solubility (SLIPID): Each compound (50-100 mg) was stirred at rt in four test tubes containing 2 or 3 mL of isopropyl myristate (IPM) or octanol (OCT) overnight. The saturated suspensions were filtered and about 0.020 mL of each filtrate was diluted with 5 or 10 mL of acetonitrile (ACN). The UV absorbances of the diluted filtrates were measured and the concentrations of each compound in either IPM (SIPM) or OCT (SOCT) were determined using Beer's Law as above but using previously measured ε of each compound in ACN.
The solubilities in the lipid, SOCT or SIPM, could also then be calculated from KLIPID:AQ=SLIPID/SAQ.

[2] = solubility in water, room temperature (23±0.5° C.)
Experimental: After the suspensions were allowed to settle, about 0.020 mL of each supernatant was added to a UV cuvette containing about 2.98 mL of Millipore H2O, and the UV absorption of each solution was measured. The concentration, SAQ, of each compound was determined using Beer's Law and the previously measured molar absorptivities (ε, L mol^−1cm^−1) of each compound in water where A is the absorbance (no units), b is the path length of the cuvette (cm) and c is the concentration (mol L^−1) of each compound in the supernatant. Beer's Law: A=εbc c=A/εb

[3] = Hydrolysis at pH 10.0 followed by iodine titration; format: physicochemical; conditions: pH 10.0, iodine titration with starch indicator
Experimental: If no free enediol is present, the excess iodine reacts with a starch indicator to give a blue color. During the titration, as iodine solution was added to the prodrug solution, a blue color formed initially but faded as the free enediol was released by hydrolysis of the prodrug and the iodine was reduced to iodide.

Row | Structure (SMILES) | log SOCT [1] | log SAQ [2] | theoretical amount of ascorbic acid acetonide formed from hydrolysis of the prodrug [3]
1 | CC(=O)OCOC1=C(OC(C)=O)C(=O)OC1C1COC(C)(C)O1 [2-AcC1-3-SMC1 ascorbic acid acetonide, 5,6-Isopropylidene-3-O-(acetyloxymethyl)-2-O-acetyl-L-ascorbic acid] | 1.55 | 1.56 | –
2 | CC(=O)OCOC1=C(OC(C)=O)C(=O)OC1C(O)CO (centres unmarked) [2-AcC1-3-SMC1 ascorbic acid] | 1.66 | 2.05 | –
3 | CCC(=O)OCOC1=C(OC(=O)CC)C(=O)OC1C1COC(C)(C)O1 (centres unmarked) [2-ethylcarbonyl-3-ethylcarbonyloxymethyl-5,6-isopropylidene ascorbic acid] | – | – | 95.7%
